Test results taken from patent publication US20100183600A1, “RAF Inhibitors and Their Uses” (ARQULE, INC., priority 2008, published 2010).

Tests used:
Assay in all cases: Cell growth inhibition assay (MTS)
Format in all cases: cell-based
SK-MEL-2 = settings: Homo sapiens; SK-MEL-2, 72 hours
In short: (§1)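 Cancer cells in DMEM with 10% FBS were seeded at 1-5×10^3 per well, cultured 24 h at 37° C., then exposed to test compounds for 72 hours. MTS plus PMS was added for 4 hr and formazan absorbance read at 492 nm; IC50 is the concentration giving 50% absorbance decrease.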

AN3CA = settings: Homo sapiens, AN3-CA, endometrial
In short: as §1

NCI-H526 = settings: Homo sapiens; NCI-H526, lung carcinoma, variant small cell lung cancer
In short: as §1

RT4 = settings: RT-4; RT4, human urinary bladder cell carcinoma
In short: as §1

NCI-H661 = settings: Homo sapiens; NCI-H661, large cell lung carcinoma
In short: as §1

MDAMB-231 = settings: Homo sapiens, MDA-MB-231; MDAMB-231, breast adenocarcinoma
In short: as §1

SK-HEP-1 = settings: Homo sapiens, SK-HEP1; SK-HEP-1, liver adenocarcinoma
In short: as §1

NCI-H358 = settings: Homo sapiens; NCI-H358, non-small cell lung cancer, brancioalveolar carcinoma
In short: as §1

HCT-116 = settings: Homo sapiens; HCT-116, colon
In short: as §1

HT-1080 = settings: Homo sapiens; HT-1080, fibrosarcoma
In short: as §1

A427 = settings: Homo sapiens, A-427; A427, lung Carcinoma
In short: as §1

NCI-H1993 = settings: Homo sapiens; NCI-H1993, lung adenocarcinoma
In short: as §1

SNU-16 = settings: Homo sapiens; SNU-16, gastric Carcinoma
In short: as §1

NCI-H441 = settings: Homo sapiens; NCI-H441, lung papillary adenocarcinoma
In short: as §1

HPAF-II = settings: Homo sapiens, pancreas
In short: as §1

HT29 = settings: Homo sapiens, HT-29; HT29, colorectal carcinoma
In short: as §1

PLC/PRF/5 = settings: Homo sapiens; PLC/PRF/5, liver
In short: as §1

MKN-45 = settings: Homo sapiens; MKN-45, stomach
In short: as §1

SNU475 = settings: Homo sapiens, SNU-475; SNU475, liver
In short: as §1

SW780 = settings: Homo sapiens; SW780, bladder
In short: as §1

SKMES-1 = settings: Homo sapiens, SK-MES-1; SKMES-1, squamous cell carcinoma
In short: as §1

LS174T = settings: Homo sapiens, colorectal carcinoma
In short: as §1

LS411N = settings: Homo sapiens, LS-411N, colorectal carcinoma
In short: as §1

CAKI-1 = settings: Homo sapiens; CAKI-1, kidney
In short: as §1

HEP-G2 = settings: Homo sapiens, HepG2; HEP-G2, hepatocellular carcinoma
In short: as §1

WIDR = settings: Homo sapiens, colorectal adenocarcinoma
In short: as §1

CALU-6 = settings: Homo sapiens; CALU-6, lung
In short: as §1

KG-1a = settings: Homo sapiens, AML
In short: as §1

NTERA-2 c1. D1 = settings: Homo sapiens, NTERA2; NTERA-2 c1. D1, testis pluripotent embryonal carcinoma
In short: as §1

LOVO = settings: Homo sapiens, colorectal carcinoma
In short: as §1

HEP-3B = settings: Homo sapiens, Hep3B, liver
In short: as §1

THP-1 = settings: Homo sapiens; THP-1, acute monocytic leukemia
In short: as §1

SW620 = settings: Homo sapiens, SW-620; SW620, colorectal adenocarcinoma
In short: as §1

COLO-205 = settings: Homo sapiens; COLO-205, colon
In short: as §1

Cn1ccc(S(=O)(=O)N2CCC[C@@H](Nc3nccc(-c4c(-c5cccc(O)c5)nc5occn45)n3)C2)n1 [Compound 17, (R)-3-(5-(2-(1-(1-methyl-1H-pyrazol-3-ylsulfonyl)piperidin-3-ylamino)pyrimidin-4-yl)imidazo[2,1-b]oxazol-6-yl)phenol]
GI50 (SK-MEL-2): 0.154 µM

Cn1ccc(S(=O)(=O)N2CCC[C@@H](Nc3nccc(-c4c(-c5cccc(OCOP(=O)(O)O)c5)nc5occn45)n3)C2)n1 [Compound 19, (R)-(3-(5-(2-(1-(1-methyl-1H-pyrazol-3-ylsulfonyl)piperidin-3-ylamino)pyrimidin-4-yl)imidazo[2,1-b]oxazol-6-yl)phenoxy)methyl dihydrogen phosphate]
GI50 (AN3CA): 20.1 µM | GI50 (NCI-H526): 58.9 µM | GI50 (RT4): 10 µM | GI50 (NCI-H661): 16.2 µM | GI50 (MDAMB-231): 28.2 µM | GI50 (SK-HEP-1): 7.22 µM | GI50 (NCI-H358): 7.5 µM | GI50 (HCT-116): 6.61 µM | GI50 (HT-1080): 26.8 µM | GI50 (A427): 3.23 µM | GI50 (NCI-H1993): 26.2 µM | GI50 (SNU-16): 15.7 µM | GI50 (NCI-H441): 17.8 µM | GI50 (HPAF-II): 5.78 µM | GI50 (HT29): 5.03 µM | GI50 (PLC/PRF/5): 13.6 µM | GI50 (MKN-45): 21.4 µM | GI50 (SNU475): 29.1 µM | GI50 (SW780): 9.1 µM | GI50 (SKMES-1): 9.02 µM | GI50 (LS174T): 5.9 µM | GI50 (LS411N): 0.31 µM | GI50 (CAKI-1): 30.3 µM | GI50 (HEP-G2): 1.38 µM | GI50 (WIDR): 20.2 µM | GI50 (CALU-6): 2.97 µM | GI50 (KG-1a): 11.5 µM | GI50 (NTERA-2 c1. D1): 5.32 µM | GI50 (LOVO): 2.17 µM | GI50 (HEP-3B): 3.16 µM | GI50 (THP-1): 10.3 µM | GI50 (SW620): 22.8 µM | GI50 (COLO-205): 0.25 µM
